Results published in patent publication US8653041B2, “Antibacterial aminoglycoside analogs” (Achaogen, Inc., priority 2010, dated 2014).

Experiments:
Pseudomonas aeruginosa = assay: MIC, CLSI broth microdilution, Pseudomonas aeruginosa panel; type: cell-based
Experimental: (§1) Minimum inhibitory concentrations (MIC) were determined by reference Clinical and Laboratory Standards Institute (CLSI) broth microdilution methods per M7-A7 [2006]. Quality control ranges utilizing E. coli ATCC 25922, P. aeruginosa ATCC 27853 and S. aureus ATCC 29213, and interpretive criteria for comparator agents were as published in CLSI M100-S17 [2007]. Briefly, serial two-fold dilutions of the test compounds were prepared at 2× concentration in Mueller Hinton Broth. The compound dilutions were mixed in 96-well assay plates in a 1:1 ratio with bacterial inoculum. The inoculum was prepared by suspension of a colony from an agar plate that was prepared the previous day. Bacteria were suspended in sterile saline and added to each assay plate to obtain a final concentration of 5×10^5 CFU/mL. The plates were incubated at 35 C for 20 hours in ambient air.
The MIC panel presented in Table 1 contains 27 isolates of Pseudomonas aeruginosa: strains 1-22 are clinical isolates from around the world collected between 2004-2007 which contain representative resistance mechanisms commonly found in Pseudomonas, such as the AAC(6′)-I, AAC(6′)-II, APH(3′)-IIb, ANT(2″)-I, and perm/efflux; strains 23-27 are susceptible.

Acinetobacter baumannii = assay: MIC, CLSI broth microdilution, Acinetobacter baumannii panel; type: cell-based
Experimental: as §1
The MIC panel presented in Table 2 contains 29 isolates of Acinetobacter baumannii: strains 1-24 are clinical isolates from around the world collected between 2004-2007 which contain representative resistance mechanisms commonly found in Acinetobacter baumannii, such as AAC(3)-I and II, AAC(6′)-I, ANT(2″)-I, APH(3′)-VI, and perm/efflux; strains 25-29 are susceptible.

[1] = 14-day rat toxicology (nephrotoxicity), once-daily subcutaneous injection; details: once daily, 14 days, Sprague-Dawley rat
Experimental: The study design utilized once-daily subcutaneous injection administration to the rat for 14 days and assessment of reversibility of any changes following a 28-day recovery period.
The dose volume administered to each animal was 1 mL/kg.

Q: With gentamicin as the substance, how does the MIC (Pseudomonas aeruginosa; P. aeruginosa clinical strain 1 (resistant clinical isolate)) read?
A: D (MIC's greater than or equal to 16.0 μg/mL and lower than 32 μg/mL = D)

Q: And the MIC (Pseudomonas aeruginosa; P. aeruginosa clinical strain 2 (resistant clinical isolate))?
A: E (MIC's greater than or equal to 32.0 μg/mL = E)

Q: What about the MIC (Pseudomonas aeruginosa; P. aeruginosa clinical strain 3 (resistant clinical isolate)) of the same substance?
A: E (MIC's greater than or equal to 32.0 μg/mL = E)

Q: What about the MIC (Pseudomonas aeruginosa; P. aeruginosa clinical strain 4 (resistant clinical isolate)) of the same substance?
A: E (MIC's greater than or equal to 32.0 μg/mL = E)

Q: And the MIC (Pseudomonas aeruginosa; P. aeruginosa clinical strain 5 (resistant clinical isolate))?
A: E (MIC's greater than or equal to 32.0 μg/mL = E)

Q: And the MIC (Pseudomonas aeruginosa; P. aeruginosa clinical strain 6 (resistant clinical isolate))?
A: E (MIC's greater than or equal to 32.0 μg/mL = E)

Q: And the MIC (Pseudomonas aeruginosa; P. aeruginosa clinical strain 7 (resistant clinical isolate))?
A: E (MIC's greater than or equal to 32.0 μg/mL = E)

Q: And the MIC (Pseudomonas aeruginosa; P. aeruginosa clinical strain 8 (resistant clinical isolate))?
A: E (MIC's greater than or equal to 32.0 μg/mL = E)

Q: What about the MIC (Pseudomonas aeruginosa; P. aeruginosa clinical strain 9 (resistant clinical isolate)) of the same substance?
A: E (MIC's greater than or equal to 32.0 μg/mL = E)

Q: And the MIC (Pseudomonas aeruginosa; P. aeruginosa clinical strain 10 (resistant clinical isolate))?
A: E (MIC's greater than or equal to 32.0 μg/mL = E)

Q: What about the MIC (Pseudomonas aeruginosa; P. aeruginosa clinical strain 11 (resistant clinical isolate)) of the same substance?
A: D (MIC's greater than or equal to 16.0 μg/mL and lower than 32 μg/mL = D)

Q: What about the MIC (Pseudomonas aeruginosa; P. aeruginosa clinical strain 12 (resistant clinical isolate)) of the same substance?
A: E (MIC's greater than or equal to 32.0 μg/mL = E)

Q: And the MIC (Pseudomonas aeruginosa; P. aeruginosa clinical strain 13 (resistant clinical isolate))?
A: E (MIC's greater than or equal to 32.0 μg/mL = E)

Q: And the MIC (Pseudomonas aeruginosa; P. aeruginosa clinical strain 14 (resistant clinical isolate))?
A: E (MIC's greater than or equal to 32.0 μg/mL = E)

Q: What about the MIC (Pseudomonas aeruginosa; P. aeruginosa clinical strain 15 (resistant clinical isolate)) of the same substance?
A: E (MIC's greater than or equal to 32.0 μg/mL = E)

Q: And the MIC (Pseudomonas aeruginosa; P. aeruginosa clinical strain 16 (resistant clinical isolate))?
A: E (MIC's greater than or equal to 32.0 μg/mL = E)

Q: And the MIC (Pseudomonas aeruginosa; P. aeruginosa clinical strain 17 (resistant clinical isolate))?
A: E (MIC's greater than or equal to 32.0 μg/mL = E)

Q: And the MIC (Pseudomonas aeruginosa; P. aeruginosa clinical strain 18 (resistant clinical isolate))?
A: E (MIC's greater than or equal to 32.0 μg/mL = E)

Q: What about the MIC (Pseudomonas aeruginosa; P. aeruginosa clinical strain 19 (resistant clinical isolate)) of the same substance?
A: E (MIC's greater than or equal to 32.0 μg/mL = E)

Q: And the MIC (Pseudomonas aeruginosa; P. aeruginosa clinical strain 20 (resistant clinical isolate))?
A: C (MIC's greater than or equal to 8 μg/mL and lower than 16.0 μg/mL = C)

Q: What about the MIC (Pseudomonas aeruginosa; P. aeruginosa clinical strain 21 (resistant clinical isolate)) of the same substance?
A: C (MIC's greater than or equal to 8 μg/mL and lower than 16.0 μg/mL = C)

Q: And the MIC (Pseudomonas aeruginosa; P. aeruginosa clinical strain 22 (resistant clinical isolate))?
A: B (MIC's of greater than 1.0 μg/mL and lower than 8 μg/mL = B)

Q: And the MIC (Pseudomonas aeruginosa; P. aeruginosa strain 23 (susceptible))?
A: A (MIC's of 1.0 μg/mL or less = A)

Q: What about the MIC (Pseudomonas aeruginosa; P. aeruginosa strain 24 (susceptible)) of the same substance?
A: B (MIC's of greater than 1.0 μg/mL and lower than 8 μg/mL = B)

Q: And the MIC (Pseudomonas aeruginosa; P. aeruginosa strain 25 (susceptible))?
A: A (MIC's of 1.0 μg/mL or less = A)

Q: And the MIC (Pseudomonas aeruginosa; P. aeruginosa strain 26 (susceptible))?
A: A (MIC's of 1.0 μg/mL or less = A)

Q: And the MIC (Pseudomonas aeruginosa; P. aeruginosa strain 27 (susceptible))?
A: A (MIC's of 1.0 μg/mL or less = A)

Q: And the MIC (Acinetobacter baumannii; A. baumannii clinical strain 1 (resistant clinical isolate))?
A: E (MIC's greater than or equal to 32.0 μg/mL = E)

Q: And the MIC (Acinetobacter baumannii; A. baumannii clinical strain 2 (resistant clinical isolate))?
A: E (MIC's greater than or equal to 32.0 μg/mL = E)

Q: And the MIC (Acinetobacter baumannii; A. baumannii clinical strain 3 (resistant clinical isolate))?
A: C (MIC's greater than or equal to 8 μg/mL and lower than 16.0 μg/mL = C)

Q: And the MIC (Acinetobacter baumannii; A. baumannii clinical strain 4 (resistant clinical isolate))?
A: E (MIC's greater than or equal to 32.0 μg/mL = E)

Q: What about the MIC (Acinetobacter baumannii; A. baumannii clinical strain 5 (resistant clinical isolate)) of the same substance?
A: E (MIC's greater than or equal to 32.0 μg/mL = E)

Q: What about the MIC (Acinetobacter baumannii; A. baumannii clinical strain 6 (resistant clinical isolate)) of the same substance?
A: E (MIC's greater than or equal to 32.0 μg/mL = E)

Q: And the MIC (Acinetobacter baumannii; A. baumannii clinical strain 7 (resistant clinical isolate))?
A: E (MIC's greater than or equal to 32.0 μg/mL = E)

Q: What about the MIC (Acinetobacter baumannii; A. baumannii clinical strain 8 (resistant clinical isolate)) of the same substance?
A: E (MIC's greater than or equal to 32.0 μg/mL = E)

Q: And the MIC (Acinetobacter baumannii; A. baumannii clinical strain 9 (resistant clinical isolate))?
A: E (MIC's greater than or equal to 32.0 μg/mL = E)

Q: What about the MIC (Acinetobacter baumannii; A. baumannii clinical strain 10 (resistant clinical isolate)) of the same substance?
A: E (MIC's greater than or equal to 32.0 μg/mL = E)

Q: What about the MIC (Acinetobacter baumannii; A. baumannii clinical strain 11 (resistant clinical isolate)) of the same substance?
A: E (MIC's greater than or equal to 32.0 μg/mL = E)

Q: What about the MIC (Acinetobacter baumannii; A. baumannii clinical strain 12 (resistant clinical isolate)) of the same substance?
A: E (MIC's greater than or equal to 32.0 μg/mL = E)

Q: And the MIC (Acinetobacter baumannii; A. baumannii clinical strain 13 (resistant clinical isolate))?
A: A (MIC's of 1.0 μg/mL or less = A)

Q: What about the MIC (Acinetobacter baumannii; A. baumannii clinical strain 14 (resistant clinical isolate)) of the same substance?
A: B (MIC's of greater than 1.0 μg/mL and lower than 8 μg/mL = B)

Q: And the MIC (Acinetobacter baumannii; A. baumannii clinical strain 15 (resistant clinical isolate))?
A: A (MIC's of 1.0 μg/mL or less = A)

Q: What about the MIC (Acinetobacter baumannii; A. baumannii clinical strain 16 (resistant clinical isolate)) of the same substance?
A: B (MIC's of greater than 1.0 μg/mL and lower than 8 μg/mL = B)

Q: And the MIC (Acinetobacter baumannii; A. baumannii clinical strain 17 (resistant clinical isolate))?
A: E (MIC's greater than or equal to 32.0 μg/mL = E)

Q: What about the MIC (Acinetobacter baumannii; A. baumannii clinical strain 18 (resistant clinical isolate)) of the same substance?
A: E (MIC's greater than or equal to 32.0 μg/mL = E)

Q: And the MIC (Acinetobacter baumannii; A. baumannii clinical strain 19 (resistant clinical isolate))?
A: B (MIC's of greater than 1.0 μg/mL and lower than 8 μg/mL = B)

Q: What about the MIC (Acinetobacter baumannii; A. baumannii clinical strain 20 (resistant clinical isolate)) of the same substance?
A: C (MIC's greater than or equal to 8 μg/mL and lower than 16.0 μg/mL = C)

Q: And the MIC (Acinetobacter baumannii; A. baumannii clinical strain 21 (resistant clinical isolate))?
A: E (MIC's greater than or equal to 32.0 μg/mL = E)

Q: What about the MIC (Acinetobacter baumannii; A. baumannii clinical strain 22 (resistant clinical isolate)) of the same substance?
A: E (MIC's greater than or equal to 32.0 μg/mL = E)

Q: And the MIC (Acinetobacter baumannii; A. baumannii clinical strain 23 (resistant clinical isolate))?
A: E (MIC's greater than or equal to 32.0 μg/mL = E)

Q: And the MIC (Acinetobacter baumannii; A. baumannii clinical strain 24 (resistant clinical isolate))?
A: E (MIC's greater than or equal to 32.0 μg/mL = E)

Q: What about the MIC (Acinetobacter baumannii; A. baumannii strain 25 (susceptible)) of the same substance?
A: A (MIC's of 1.0 μg/mL or less = A)

Q: And the MIC (Acinetobacter baumannii; A. baumannii strain 26 (susceptible))?
A: A (MIC's of 1.0 μg/mL or less = A)

Q: And the MIC (Acinetobacter baumannii; A. baumannii strain 27 (susceptible))?
A: A (MIC's of 1.0 μg/mL or less = A)

Q: And the MIC (Acinetobacter baumannii; A. baumannii strain 28 (susceptible))?
A: A (MIC's of 1.0 μg/mL or less = A)

Q: What about the MIC (Acinetobacter baumannii; A. baumannii strain 29 (susceptible)) of the same substance?
A: A (MIC's of 1.0 μg/mL or less = A)

Q: What about the mortality and morbidity ([1]; 100 mg/kg/day subcutaneous) of the same substance?
A: resulted in mortality and morbidity at 100 mg/kg/day due to nephrotoxicity

Q: What about the “macroscopic and microscopic changes in the kidneys” value ([1]; all dose levels (10, 30 or 100 mg/kg/day) subcutaneous) of the same substance?
A: observed at all dose levels
